In article PMC12165925 (Natural Products and Bioprospecting, 2025):

What was measured:
SARS-CoV-2-S pseudovirus = assay: microbe, parasite or virus in culture; format: cell-based; conditions: for inhibition of attachment of SARS-CoV-2-S pseudovirus to ACE2-expressing HEK293T cells: 5 µM and 50 µM, p < 0.001; for IC50: Pseudovirus
BEL-7402 cells = assay: Maximum non-toxic concentration in BEL-7402 cells (CPE monitoring)
[1] = parameters: method as in PMID 25980422; conditions: cited from earlier work
hACE2-HEK293T cells = assay: Cytotoxicity, CCK-8, hACE2-HEK293T cells
[2] = Cytotoxicity, CCK-8, hACE2-HEK293T cells; conditions: human
S-RBD = S-RBD (Severe acute respiratory syndrome coronavirus 2, UniProt P0DTC2); assay: Surface plasmon resonance, immobilized S-RBD; format: binding, SARS-CoV-2; conditions: SPR; for Kd: Langmuir 1:1 binding model; for kon: read-out: ka, S-RBD
SARS-CoV-2 3CL^pro [3] = biological target: T1, SARS-CoV-2 3CL^pro (Severe acute respiratory syndrome coronavirus 2, UniProt P0DTD1)
HCoV-229E = assay: Anti HCoV-229E activity in BEL-7402 cells (CPE, RT-qPCR); format: cell-based
ACE2 = ACE2 (Homo sapiens, UniProt Q9BYF1); assay: Surface plasmon resonance, immobilized ACE2; format: binding; conditions: for kon / koff: SPR; for kon: read-out: binding rate constant (ka), ACE2; for koff: read-out: dissociation rate constant (kd), ACE2
Experimental: Binding affinities between compounds and ACE2 or S-RBD were evaluated using a Biacore T200 instrument (Cytiva, UK). […] A mixture of 50 mM NHS and 200 mM EDC was injected to activate the surface, after which 20 µg/mL ACE2 was immobilized to achieve 15,020 RU, and 30 µg/mL S-RBD reached 7193 RU. Surface blocking was performed using 1 M ethanolamine at pH 8.5. Delphinidin with 5% DMSO was injected into the flow system and analyzed for 120 s, followed by 300 s of dissociation. Glycine–HCl at pH 3.0 was used for surface regeneration between analyte injections. Data were processed using double reference subtraction and solvent corrections. Binding affinities were determined using a Langmuir 1:1 binding model in Biacore Evaluation software (Cytiva, UK).

SARS-CoV-2 3CL^pro [4] = biological target: T1, SARS-CoV-2 3CL^pro; assay: biochemical; format: binding
cathepsin L (CTSL) = cathepsin L (CTSL) (Homo sapiens, UniProt P07711); assay: Host protease inhibitory activity assay, CTSL; conditions: 50 µM, p < 0.001
Experimental: (§1) Similarly, CTSL (Sino Biological, Beijing, China) was diluted, activated, and incubated with the test compounds before Z-Phe-Arg-AMC was added, with fluorescence measurements taken under the same conditions. For CTRC (Novoprotein, Suzhou, China), a 5 µg/mL solution was incubated with the test compounds in Tris buffer, then activated with trypsin (Sigma, Saint Louis, USA). The reaction was initiated using 100 µM Succinyl-Ala-Ala-Pro-Phe-p-nitroanilide (NJPeptide Biotech, Nanjing, China), and absorbance was measured at 405 nm.

chymotrypsin C (CTRC) = biological target: T2, chymotrypsin C (CTRC) (Homo sapiens, UniProt Q99895); assay: Host protease inhibitory activity assay, CTRC; conditions: 50 µM, p < 0.001
T2 sequence (Q99895 30-268): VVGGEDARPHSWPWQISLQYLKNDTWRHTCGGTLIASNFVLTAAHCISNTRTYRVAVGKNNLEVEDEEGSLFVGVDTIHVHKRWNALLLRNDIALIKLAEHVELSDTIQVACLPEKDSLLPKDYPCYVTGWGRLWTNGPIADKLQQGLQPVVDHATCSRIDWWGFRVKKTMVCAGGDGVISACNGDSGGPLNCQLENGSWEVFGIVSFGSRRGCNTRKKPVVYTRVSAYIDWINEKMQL
Experimental: as §1

cathepsin B (CTSB) = cathepsin B (CTSB) (Homo sapiens, UniProt P07858); assay: Host protease inhibitory activity assay, CTSB; conditions: 50 µM
Experimental: The activities of cathepsin B (CTSB), cathepsin L (CTSL), and chymotrypsin C (CTRC) were assessed following established methods [35, 36]. […] After further dilution to 500 pM, CTSB was incubated with the test compounds for 30 min, followed by the addition of 5 µM Z-Phe-Arg-AMC (NJPeptide Biotech, Nanjing, China) to initiate the reaction. Fluorescence was recorded using a Cytation 5 reader at excitation/emission wavelengths of 360/460 nm.

SARS-CoV-2 3CL^pro [5] = biological target: T1, SARS-CoV-2 3CL^pro; assay: biochemical
Vero-E6 cells = assay: Cytotoxicity, CCK-8, Vero-E6 cells; conditions: at 200 µM
[6] = Cytotoxicity, CCK-8, Vero-E6 cells; conditions: African green monkey
[7] = parameters: method as in PMID 31557009; conditions: cited from earlier work

Sequence of ACE2 (Q9BYF1 18-805): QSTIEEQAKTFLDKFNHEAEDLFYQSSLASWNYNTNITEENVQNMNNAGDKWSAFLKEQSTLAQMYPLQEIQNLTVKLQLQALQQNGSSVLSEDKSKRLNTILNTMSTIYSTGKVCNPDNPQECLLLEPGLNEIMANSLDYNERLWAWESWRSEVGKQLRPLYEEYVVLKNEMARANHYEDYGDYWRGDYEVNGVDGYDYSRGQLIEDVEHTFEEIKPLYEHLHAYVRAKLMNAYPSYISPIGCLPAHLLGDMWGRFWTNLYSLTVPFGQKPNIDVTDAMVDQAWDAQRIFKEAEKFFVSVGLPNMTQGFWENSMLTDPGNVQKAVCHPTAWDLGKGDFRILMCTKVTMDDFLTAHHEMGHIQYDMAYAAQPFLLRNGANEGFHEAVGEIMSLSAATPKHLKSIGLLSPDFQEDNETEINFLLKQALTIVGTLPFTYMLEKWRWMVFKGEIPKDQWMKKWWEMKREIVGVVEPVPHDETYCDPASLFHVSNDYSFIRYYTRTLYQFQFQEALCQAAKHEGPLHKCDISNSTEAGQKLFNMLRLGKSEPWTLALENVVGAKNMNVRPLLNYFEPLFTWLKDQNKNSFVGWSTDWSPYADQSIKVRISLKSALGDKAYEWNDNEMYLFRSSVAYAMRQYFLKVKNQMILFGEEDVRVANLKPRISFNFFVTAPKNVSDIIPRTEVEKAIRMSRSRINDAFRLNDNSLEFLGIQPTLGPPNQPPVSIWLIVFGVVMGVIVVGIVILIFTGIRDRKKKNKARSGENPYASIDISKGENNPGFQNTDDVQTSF
Sequence of cathepsin L (CTSL) (P07711 114-333): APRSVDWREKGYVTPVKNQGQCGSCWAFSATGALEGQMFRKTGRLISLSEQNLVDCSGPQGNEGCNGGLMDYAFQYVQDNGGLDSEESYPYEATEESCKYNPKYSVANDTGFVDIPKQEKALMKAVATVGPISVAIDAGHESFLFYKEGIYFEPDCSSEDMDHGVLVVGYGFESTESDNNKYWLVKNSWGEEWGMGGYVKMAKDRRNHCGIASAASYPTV

## C[C@@H]1O[C@@H](O[C@H]2[C@H](OC(=O)[C@]34CCC(C)(C)C[C@H]3C3=CC[C@@H]5[C@@]6(C)C[C@H](O)[C@H](O[C@@H]7O[C@H](CO)[C@@H](O)[C@H](O)[C@H]7O)C(CO)(CO)[C@@H]6CC[C@@]5(C)[C@]3(C)C[C@H]4O)OC[C@H](O)[C@@H]2O)[C@H](O)[C@H](O)[C@H]1O[C@@H]1OC[C@@H](O)[C@H](O)[C@H]1O [DPD, Deapio platycodin D]
SARS-CoV-2-S pseudovirus
  selectivity index (SI), [CC50]/[IC50]: 25.73
  inhibition of attachment of SARS-CoV-2-S pseudovirus to ACE2-expressing HEK293T cells: significantly inhibited
  IC50: 1.38 ± 0.46 µM
BEL-7402 cells
  maximum non-toxic concentration (MNTC): 12.50 µM
[1]; oral administration ref 60
  Tmax: under 1 h
[1]; particularly lung tissue ref 60
  elimination from tissues: slow elimination
hACE2-HEK293T cells; 5 µM
  cytotoxicity against hACE2-HEK293T cells: no cytotoxicity
hACE2-HEK293T cells; 50 µM, p < 0.001
  cytotoxicity against hACE2-HEK293T cells: had cytotoxicity
[2]
  CC50: 35.5 ± 1.77 µM
S-RBD
  Kd: 379 µM
  kon: 103 M⁻¹ s⁻¹
SARS-CoV-2 3CL^pro [3]
  inhibition of SARS-CoV-2 3CL^pro: lack of inhibition
HCoV-229E; 12.50 µM (MNTC), BEL-7402 cells, RT-qPCR
  antiviral activity against HCoV-229E: significant antiviral activity
HCoV-229E; Human coronavirus 229E, Bel-7402, read-out: IC50, HCoV-229E replication
  IC50: 3.3 µM
ACE2
  Kd: 358 µM
  kon: 54.6 M⁻¹ s⁻¹
  koff: 0.0196 s⁻¹

## Oc1cc(O)c2cc(O)c(-c3cc(O)c(O)c(O)c3)[o+]c2c1 [Delphinidin]
SARS-CoV-2 3CL^pro [4]
  Kd: 24.5 µM
SARS-CoV-2 3CL^pro [4]; read-out: Ka, SARS-CoV-2 3CL^pro
  kon: 296 M⁻¹ s⁻¹
SARS-CoV-2-S pseudovirus
  selectivity index (SI), [CC50]/[IC50]: > 4.41
  inhibition of attachment of SARS-CoV-2-S pseudovirus to ACE2-expressing HEK293T cells: significantly inhibited
  IC50: 45.4 ± 7.09 µM
Cathepsin L (CTSL)
  inhibition of CTSL: strong inhibitory effect
hACE2-HEK293T cells; screening concentrations 5 µM and 50 µM
  cytotoxicity against hACE2-HEK293T cells: not significantly cytotoxic
[2]
  CC50: > 200 µM
Chymotrypsin C (CTRC)
  inhibition of CTRC: strong inhibitory effect
S-RBD
  kd, S-RBD: 1.14 × 10^–3 s^−1
  Kd: 2.98 µM
  kon: 383 M⁻¹ s⁻¹
Cathepsin B (CTSB)
  inhibition of CTSB: did not inhibit
SARS-CoV-2 3CL^pro [5]
  Ki: 0.93 µM
SARS-CoV-2 3CL^pro [5]; IC50, SARS-CoV-2 3CL^pro
  IC50: 1.54 ± 0.38 µM
SARS-CoV-2 3CL^pro [5]; IC50, SARS-CoV-2 3CL^pro (TDI)
  IC50: 4.39 ± 0.53 µM
SARS-CoV-2 3CL^pro [3]
  IC50 shift, 3 vs 30 min pre-incubation: 2.85 times
  inhibition mechanism on SARS-CoV-2 3CL^pro: non-competitive inhibitor
Vero-E6 cells
  cytotoxicity on Vero-E6 cells: no toxicity
[6]
  CC50 at 24 h: > 200 µM
ACE2
  Kd: 6.64 µM
  kon: 309 M⁻¹ s⁻¹
  koff: 0.00205 s⁻¹
[7]
  bioavailability: low
